Source: patent US20250275993A1, “GLYCOSYLATION INHIBITORS AS THERAPEUTICS FOR STROKE” (The Regents of the University of California, priority 2022, published 2025)

Key:
[1] = tested on: ischemic hindlimb; experiment: Hindlimb ischemia model and evaluation of blood flow; assay type: in vivo, mouse; conditions: for blood vessel density vs H2O-treated control (CD31): 3 weeks post-ligation; for blood flow recovery one week after surgery: 20% ManN orally or 1 mg/ml Kif ip every other day, H2O group 25%
Description: The angiogenic effects of ManN and Kif in a mouse hindlimb ischemia model were assessed. The activity of ManN in a chronic ischemia model that might more specifically reflect its effects as an endothelial cell mitogen and a pro-angiogenic factor was assessed, and the hindlimb ischemia model in the mouse was considered. Several variants have been described, depending on which vessel is occluded. The variant chosen consists in ligation and excision of the femoral artery, which results in more severe ischemia compared to simple femoral artery ligation. Occlusion of two vessels produces more severe ischemia, but has the disadvantage of inducing severe pain and distress, as well as frequent ulcerations and necrosis in mice.
Oral administration of ManN was tested in this femoral artery ligation-excision model. Since Kif has been previously administered intraperitoneally for in vivo studies, this route was employed. Laser Doppler Perfusion Imaging (LDPI) was used as a non-invasive method to monitor time and extent of the blood flow recovery in the ischemic limb. Serial examination of blood flow was taken with LDPI and increment of the perfusion ratio of ischemic (ligated; left side) to non-ischemic (sham; right side) hindlimbs after ligation was used to indicate a recovery of blood flow. Starting immediately after surgery, mice were orally fed with 20% ManN or 1 mg/ml Kif ip every other day, as described in methods. One week after surgery, the perfusion ratio in H2O-fed group indicated a blood flow recovery of […], a value that is in good agreement with published data with the same type of lesion, in the same strain of mice.
C57BL/6 male mice (6-8 weeks old) were subjected to unilateral hindlimb surgery under anesthesia with ketamine/xylazine cocktail. Briefly, the left femoral artery was separated from the vein and nerve, ligated proximally, and excised. The right hindlimb served as control. Blood flow was measured by using a laser Doppler perfusion imager (PeriScan PSI; Perimed). Ischemic and nonischemic limb perfusion was measured before and after surgery and 1, 2 and 3 weeks later. After surgery, mice were randomly allocated to different groups (8 mice for each group). 200 μl of 20% ManN was orally administrated every other day from 3rd day after surgery. 200 μl of 1 mg/nil Kif was administrated through ip injection every other day. H2O was used as a vehicle control. The final blood flow values were expressed as the ratio of ischemic to nonischemic hindlimb perfusion from the same animal. Quantification of blood vessel area was carried out as described.

[2] = tested on: bovine choroidal microvascular endothelial cells (BCEC); experiment: BCEC proliferation assay (AlamarBlue / crystal violet); assay type: cell-based
Description: The effect of ManN on EC proliferation was assessed.
AlamarBlue detects mitochondria activity as an indication of cell viability which correlates with cell number at certain ranges.
Proliferation assays with BCECs and BRECs were performed. Log-phase growing BCECs or BRECs (passage <10) were trypsinized, re-suspended and seeded in 96-well plates (no coating) in low-glucose DMEM supplemented with 10% bovine calf serum, 2 mM glutamine, and antibiotics (growth medium), at a density of 1200-1500 cells per well in 200 μl volume. All reagents were added at the indicated final concentrations. After 3-6 days, cells were incubated with AlamarBlue for 4 hrs. Fluorescence was measured at 530 nm excitation wavelength and 590 nm emission wavelength. The experiments were repeated at least three times. […] 20% methanol or 0.05% DMSO served as negative controls. […] Human RMVECs and human adult DMVECs were split into Gelatin-coated 96 wells (2000 cells per well) in low glucose DMEM containing 10% FBS. 1200 cells/well was set up for proliferation assay in low glucose media containing 0.5% FBS. Data was collected at day 4 or 5. HUVEC (p7-10) were grown on gelatin-coated plate until it reached 70-80% confluency.
On the day of the assay, cells were dissociated with 0.05% trypsin, which was neutralized with 0.5% FBS-containing EBM. Cells were briefly spun and then re-suspended in 0.5% FBS-media. Cells were counted and plated in 96-well, 1000 cells/well. Triplicate wells were used for each treatment. Data were collected at day 3, and then cells were fixed in 4% paraformaldehyde for 15 min before adding crystal violet. Cell-covered areas were quantified after taking pictures by Image J software.

[3] = tested on: VEGFR2; experiment: VEGFR2 western blot in BCECs (molecular mass, phosphorylation, PNGase F); assay type: cell-based, bovine
Description: Glycerol-free PNGase F was obtained from New England Biolabs (Ipswich, MA). Briefly, BCECs were lysed with NP-40 containing proteinase inhibitors (Thermo Scientific, Waltham, MA). Lysates were cleared at 4° C. at 5000 g for 25 mins. Total protein content was measured using Pierce BCA protein assay kit (Thermo Scientific). 20 mg of protein was mixed with 10× denaturing buffer and H2O to a total volume of […]. Glycoproteins were denatured at 100° C. for 10 mins, followed by adding Glycobuffer and PNGase F. The reaction was carried out at 37° C. for 2 hr.
Cells were allowed to reach-80% confluency in 12-well plates. […] At various time points, plates were taken out of the incubator and kept on ice. […] Lysates were collected and mixed with 4× Bolt LDS Sample Buffer (Novex, Carlsbad, CA) in the presence of Halt protease inhibitors and phosphatase inhibitor cocktail (ThermoFisher scientific, #NP0007). […] HUVECs (passage 6-8) were plated in EBM-2 basal medium (Lonza) with 0.2% FBS. Following overnight culture, cells were serum-starved in EBM-2 medium for 4 hrs prior to treatment with 50 ng/ml of VEGF165 or vehicle controls for various lengths. Equal amounts of protein lysates were analyzed by SDS-PAGE and blotted with the indicated antibodies. Proteins were transferred using Tris-Glycine buffer with 20% Methanol (Proteonomics grade) (Apex BioResearch Products). Membranes were first incubated with 5% milk in TBST, pH 7.6 (TEKnova, Hollister, CA), followed by blotting with primary and secondary antibodies. ECL anti-rabbit IgG, horseradish peroxidase linked whole antibody from donkey or sheep anti-mouse were obtained from GE Healthcare (UK limited). SuperSignal West Dura Extended Duration substrate was from ThermoFisher Scientific. In some cases, the same PVDF membranes were stripped by 8-min incubation in the Restore Plus Western Blot Stripping Buffer (ThermoFisher Scientific) to show total specific protein expression, followed by second stripping for (3-actin expression.

[4] = tested on: Bip, CHOP, ATF-6; experiment: Western blot of UPR responsive proteins in BCECs; assay type: cell-based, bovine

## O=C1N[C@@H]2[C@@H](O)[C@@H](O)[C@H](O)[C@@H](CO)N2C1=O [Kif, Kifunensine, reference compound]
[1]
  blood vessel density vs H2O-treated control (CD31): 1.8 times higher
  blood flow recovery one week after surgery: ~47%
[2]; 0.01 to 100 μM, 3 days, absence or presence of 5 ng/ml VEGF
  BCEC proliferation by glycosylation inhibitors: stimulated in a dose-dependent fashion
[3]; 24 hours
  VEGFR2 molecular mass on SDS-PAGE after glycosylation inhibitors: reduction in VEGFR2 molecular mass
[4]; media without growth factors for 24 hours
  Bip expression by glycosylation inhibitors: dose-dependent induction of Bip expression

## N[C@H](C=O)[C@@H](O)[C@H](O)[C@H](O)CO [ManN, 2-Amino-2-deoxy-D-mannose]
[1]
  blood vessel density vs H2O-treated control (CD31): 2.3 times higher
  blood flow recovery one week after surgery: about 40%
[2]; 5 ng/ml VEGF
  additivity with VEGF in promoting BCEC proliferation: additive with VEGF in promoting BCEC proliferation
[2]; 20 ng/ml bFGF, FIG. 11A
  additivity with bFGF in promoting BCEC proliferation: Additive effects
[2]; 0.5 μM to 1 mM, 5-6 days, with or without VEGF
  shape of dose-response on BCEC proliferation: bell-shaped dose-response curve, with inhibition at higher concentrations
[2]; BCEC
  dose range with significant stimulatory effects on BCEC proliferation: 5-500 UM
[2]; ManN at 50 μM alone, crystal violet, FIG. 1A
  maximal fold increase in EC-covered surface: ~6.5 fold
[2]; as little as 4 μM ManN, even in the presence of VEGF
  cytotoxicity in glucose-free media: significant cytotoxicity
[2]; glucose-free media
  additivity between ManN and VEGF in glucose-free media: abolished
[3]; BCECs and BRECs
  concentration from which VEGFR2 apparent molecular mass shifts: ≥ 40 µM
[3]; BCECs, FIG. 4E
  duration of ManN effects on protein mass in the absence of exogenous ManN: at least 8 hours
[3]; ManN in BCEC
  protein mass of av integrin, Neuropilin-1, VE-cadherin and bFGFR1: affected as well
[3]; ManN pre-treated cells
  VEGFR2 phosphorylation in response to VEGF: decreased
[3]; after 24 hours
  reversibility of VEGFR2 molecular mass change after ManN removal: completely reverse
[3]; after ManN addition in BCECs
  ligand-independent VEGFR2 activation: No ligand-independent VEGFR2 activation
[3]; experiments with axitinib
  dependence of ManN effects on VEGFR2 signaling: not dependent on VEGFR2 signaling
[3]; hexosamines and derivatives at 40 μM, 24 hours
  specificity of VEGFR2 molecular mass shift: unique to ManN among hexosamines and their derivatives
[3]; μM concentrations of ManN
  extent of loss of VEGFR2 glycosylation (PNGase F treatment): not all the glycosylation on VEGFR2 was abolished
[4]; FIG. 5B
  synergy between ManN and VEGF in promoting Bip or CHOP expression: No synergy
[4]; ManN, dose-dependent
  time of CHOP induction: about 6 hours
[4]; growing cells deprived of growth factor, evident at 24 and 48 hours
  Bip expression: significantly turn on Bip expression in a concentration-dependent manner
